Several values for one entry are separate records, joined by “and”; a condition that tells them apart may be missing. Equal entries are not always repeated.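 Assay format: 96-well plates, 48-hour exposure. At the GI50, growth is halved. Definition used: TGI = concentration required for complete inhibition of growth.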
Experiments:
Test in all cases: NCI tumour cell line growth inhibition, 48 h
[1] = test system: CCRF-CEM leukemia
[2] = test system: COLO 205 colon
[3] = test system: HT29 colon
[4] = test system: KM12 colon
[5] = test system: LOX IMVI melanoma
[6] = test system: NCI-H23 lung
[7] = test system: OVCAR-3 ovarian
[8] = test system: OVCAR-4 ovarian
[9] = test system: RPMI-8226 leukemia
[10] = test system: SNB-19 CNS

Row | SMILES | TGI [1] [µM] | TGI [2] | TGI [3] | TGI [4] | TGI [5] | TGI [6] | TGI [7] | TGI [8] | TGI [9] | TGI [10] | GI50 [1] [µM] | GI50 [2] | GI50 [3] | GI50 [4] | GI50 [5] | GI50 [6] | GI50 [7] | GI50 [8] | GI50 [9] | GI50 [10]
1 | O=C(c1ccc([N+](=O)[O-])cc1[N+](=O)[O-])N(/N=C/C=C/c1ccccc1)c1nnc(-c2ccccc2)c(-c2ccccc2)n1 | 84.2 | > 100 µM | > 100 µM | > 100 µM | > 100 µM | 93.2 µM | > 100 µM | 76.6 µM | > 100 µM | > 100 µM |  |  |  |  |  |  |  |  |  | 
2 | COc1ccc(-c2cc(=O)oc3c4c(ccc23)OCN(Cc2ccc(F)cc2)C4)cc1 | 82 | 36.1 µM | 34.9 µM | 35.2 µM | 32.3 µM | 49.4 µM | 29.9 µM | 43.2 µM | 37.1 µM | 36.4 µM | 25.8 | 18.7 µM | 17.6 µM | 17.6 µM | 16.7 µM | 20.5 µM | 15.3 µM | 17.4 µM | 15.4 µM | 15.6 µM
3 | Cc1cccc(NC2=C(Cl)C(=O)c3nc(C)ccc3C2=O)c1 | > 100 | 4.1 µM | 11.9 µM | 10.8 µM | 1.46 µM | 2.13 µM | 1.18 µM | 2.45 µM | 5.17 µM | 10.3 µM | 2.29 | 1.86 µM | 2.94 µM | 2.67 µM | 0.351 µM | 0.512 µM | 0.262 µM | 1.2 µM | 1.48 µM | 1.29 µM
4 | NC(=S)N/N=C/c1ncccc1O | 21.8 | > 431 µM | > 1000 µM | > 1000 µM | 98.7 µM and 54.6 µM | 33.4 µM and 29.7 µM | > 59.3 µM and 123 µM | > 929 µM | > 1000 µM | 295 µM | 1.15 | 3.48 µM | 2.72 µM | 4.67 µM | 5.29 µM | 1.38 µM | 2.77 µM | 5.21 µM | 5.92 µM and 2.07 µM | 3.61 µM
5 | COc1cc(C[P+](c2ccccc2)(c2ccccc2)c2ccccc2)cc(OC)c1OC | > 100 | > 100 µM | > 100 µM | > 100 µM | > 100 µM | > 100 µM | > 100 µM | > 100 µM | > 100 µM | > 100 µM |  |  |  |  |  |  |  |  |  | 
6 | CCn1cc(-c2ccnc3[nH]c(-c4cccc(CN(C)C)c4)cc23)c(-c2ccc(NC(=O)N(C)C)cc2)n1 | 51.6 | 3.81 µM and 2.99 µM | 22.6 µM and > 10 µM | 13.5 µM and > 10 µM | 1.88 µM and 5.2 µM | 17.2 µM and > 10 µM | 23.9 µM and > 10 µM | 37.1 µM and > 10 µM | 15.6 µM and > 10 µM | 45 µM and > 10 µM | < 0.01 | < 0.01 µM and 0.0272 µM | 1.89 µM and 1.4 µM | 1.06 µM and 1.62 µM | 0.297 µM and 0.239 µM | 2.1 µM and 2.45 µM | 3.82 µM and 3.15 µM | 0.479 µM and 3.41 µM | 1.69 µM and 1.32 µM | 10 µM and > 10 µM
7 | CCCCCCCCSC1=C(Cl)C(=O)C(OC)=C(OC)C1=O | > 100 | 38 µM | 34.8 µM | 37.7 µM | 24 µM | 31.5 µM | 23.8 µM | 29.8 µM | > 100 µM | 24.3 µM |  |  |  |  |  |  |  |  |  | 
8 | O=C(Nc1nc(-c2c[nH]c3ccccc23)cs1)c1n[nH]c(=O)c2ccccc12 | 98.8 | > 60.1 µM | > 100 µM | > 100 µM | 17.9 µM | > 100 µM | > 83.7 µM | > 100 µM | 58.2 µM | > 75 µM | 1.27 | 2.47 µM | 1.19 µM | 1.76 µM | 0.644 µM | 24.2 µM | 13.6 µM | 20.6 µM | 0.957 µM | > 34.5 µM
9 | CCCCCCCC(=O)OCC1OC(n2cc(F)c(=O)[nH]c2=O)C(N)C(OC(=O)CCCCCCC)C1O (stereo not given) | 40.4 | 34 µM | 33.4 µM | 42.3 µM | 32.5 µM | 35.9 µM | 41.2 µM | 29 µM | 53.5 µM | 32 µM |  |  |  |  |  |  |  |  |  | 
10 | COC(=O)C1=CN(CC2=CC(=O)C(C)=CC2=O)C=C(C(=O)OC)C1c1ccccc1OC | 14.1 | 38.2 µM | > 100 µM | > 72.3 µM | 42.9 µM | 45.6 µM | 26.8 µM | > 67.4 µM | 40.7 µM | > 100 µM | 5.48 | 18.9 µM | 40.9 µM | 23.6 µM | 21.4 µM | 19.5 µM | 13.2 µM | 22.5 µM | 10.3 µM | > 54.9 µM
11 | O=c1[nH]c(=O)n(C2CC(O)C(CO)O2)cc1OS(=O)(=O)C(F)(F)F (stereo not given) | > 100 | > 100 µM | > 100 µM | > 100 µM | > 100 µM | > 100 µM | > 100 µM | > 100 µM | > 100 µM | > 100 µM |  |  |  |  |  |  |  |  |  | 

From PubChem BioAssay (NCI)
